Here are results for 87 compounds from ChEMBL document CHEMBL3227967, “Quantitative structure-activity relationships in 1-aryl-2-(alkylamino)ethanol antimalarials” (J Med Chem, 1979).

For this experiment, the system named is Plasmodium berghei. The experiment can be described thus: Antimalarial activity against Plasmodium berghei. Type of experiment: functional.
For the compound `OC(CC1CCCCN1)c1cc(-c2ccc(C(F)(F)F)cc2)nc(-c2ccc(C(F)(F)F)cc2)c1` (configuration not stated), the “log(1/C)” value is recorded as 4.19. For `COc1ccc2nc(C(F)(F)F)cc(C(O)CC3CCCCN3)c2c1` (configuration not stated), the “log(1/C)” value came out at 2.97. The result for `CCCCN(CCCC)CC(O)c1ccc(Cl)c2nc(-c3ccccc3)ccc12` (configuration not stated) reads 2.47; that for `OC(CC1CCCCN1)c1cc2cc(Cl)ccc2c2c(C(F)(F)F)cccc12` (configuration not stated), 4.05; that for `CCCCN(CCCC)CC(O)c1cc2cc(SC)ccc2c2cc(Cl)c(Cl)cc12` (configuration not stated), 3.74. Turning to `OC(CCC1CCCCN1)c1cc2ccc(C(F)(F)F)cc2c2cc(C(F)(F)F)ccc12` (configuration not stated), the “log(1/C)” value was determined as 4.11. As to `CCCCCCCN(CCCCCCC)CC(O)c1cc2ccc(F)cc2c2ccccc12` (configuration not stated), the “log(1/C)” value amounted to 2.32. With `CCCCCCN(CCCCCC)CC(O)c1cc(-c2ccc(Cl)c(Cl)c2)nc2cc(C(F)(F)F)ccc12` (configuration not stated), the “log(1/C)” value was determined as 3.68.

Consider `CCCCCCN(CCCCCC)CC(O)c1cccc2c1ccc1ccccc12` (configuration not stated), for which the “log(1/C)” value came out at 2.03.

Turning to `CCNC(C)(C)CC(O)c1cc(C(F)(F)F)nc2c(C(F)(F)F)cccc12` (configuration not stated), the “log(1/C)” value is on record as 2.54. As to `CCCCN(CCCC)CC(O)c1cc(-c2ccc(Cl)cc2)nc2cc(F)ccc12` (configuration not stated), the “log(1/C)” value was 3.62.

As for `OC(CNCc1ccccc1)c1cc(-c2ccc(Cl)c(Cl)c2)nc2c(Cl)cc(Cl)cc12` (configuration not stated), the “log(1/C)” value was 3.66. In the case of `OC(CC1CCCCN1)c1cc2cc(C(F)(F)F)ccc2c2cc(C(F)(F)F)ccc12` (configuration not stated), the “log(1/C)” value is 3.85. With `CCCCCCN(CCCCCC)CC(O)c1cc(-c2ccc(F)cc2)nc(-c2ccc(F)cc2)c1` (configuration not stated), the “log(1/C)” value is 2.58. As for `CCCCN(CCCC)CC(O)c1cc2ccc(Cl)c(Cl)c2c2cc(C(F)(F)F)ccc12` (configuration not stated), the “log(1/C)” value was 3.98.

Take `CCCN(CCC)CCC(O)c1cc2ccc(C(F)(F)F)cc2c2cc(C(F)(F)F)ccc12` (configuration not stated): the “log(1/C)” value is on record as 4.23. On to `OC(CC1CCCCN1)c1cc2ccccc2c2ccc(C(F)(F)F)cc12` (configuration not stated), for which the “log(1/C)” value came out at 3.22. In the case of `CCCCCCCN(CCCCCCC)CC(O)c1cc(-c2ccc(Cl)cc2)cc2cc(Cl)c(OC)cc12` (configuration not stated) it was 3.31; in that of `Cc1ccc(-c2cc(C(O)CC3CCCCN3)c3ccccc3n2)cc1` (configuration not stated), 2.38; in that of `CCCCCCCN(CCCCCCC)CC(O)c1cccc2c1cc(Cl)c1ccccc12` (configuration not stated), 2.5.

With `CCCCCCCN(CCCCCCC)CC(O)c1c(Br)c2ccccc2c2ccccc12` (configuration not stated), the “log(1/C)” value is given as 3.33. `OC(CC1CCCCN1)c1ccnc2c(Cl)cccc12` (configuration not stated): the “log(1/C)” value amounted to 2.01. In the case of `CCN(CC)CC(O)c1cc2cc(Cl)cc(Cl)c2nc1-c1ccc(Cl)cc1` (configuration not stated), the “log(1/C)” value stood at 2.47.

With `CCN(CC)CC(O)c1cc2c(Cl)cc(Cl)cc2c2cc(Cl)ccc12` (configuration not stated), the “log(1/C)” value is recorded as 3.9.

As for `CCCCN(CCCC)CC(O)c1cc2ccc(Br)cc2c2cc(Cl)sc12` (configuration not stated), the “log(1/C)” value is reported as 3.43. In the case of `CCCCCCN(CCCCCC)CC(O)c1cc(-c2ccc(OC)c(OC)c2)nc2ccc(Cl)cc12` (configuration not stated) it was 3.32; in that of `CCCCN(CCCC)CC(O)c1c(Br)c2cc(Br)ccc2c2ccc(Br)cc12` (configuration not stated), 3.09. For `CCCCCCCN(CCCCCCC)CC(O)c1cccc2c1cc(Cl)c1cc(Cl)c(Cl)cc12` (configuration not stated), the “log(1/C)” value was 2.71. On to `OC(CC1CCCCN1)c1cc(Nc2ccc(Cl)cc2)nc2ccc(Cl)cc12` (configuration not stated), for which the “log(1/C)” value is on record as 2.72. As for `CCCCCCN(CCCCCC)CC(O)c1cc(-c2ccc(Cl)cc2)nc2cc(C(F)(F)F)ccc12` (configuration not stated), the “log(1/C)” value came to 2.85. On to `OC(CC1CCCCN1)c1cc2c(Cl)cc(Cl)cc2c2cc(Br)ccc12` (configuration not stated), for which the “log(1/C)” value was 3.81.

As to `CCCCN(CCCC)CC(O)c1cc2ccc(C(F)(F)F)cc2c2ccsc12` (configuration not stated), the “log(1/C)” value is on record as 2.81. Take `CCCN(CCC)CC(O)c1cc2ccc(Cl)c(Cl)c2c2cc(C(F)(F)F)ccc12` (configuration not stated): the “log(1/C)” value is 4.03. In the case of `CCCCCCCN(CCCCCCC)CC(O)c1cc2ccc(Cl)c(Cl)c2c2cc(C(F)(F)F)ccc12` (configuration not stated) it was 3.92; in that of `CCCCNCC(O)c1cc(-c2cccc(C(F)(F)F)c2)nc(C(F)(F)F)c1` (configuration not stated), 3.69. As for `CCCC(CCC)N(CC(O)c1cc(-c2ccc(C(F)(F)F)cc2)nc(-c2ccc(C(F)(F)F)cc2)c1)C(CCC)CCC` (configuration not stated), the “log(1/C)” value turned out to be 4.15. Regarding `CCCCN(CCCC)CC(O)c1cc(C(=O)c2cc(Cl)cc(Cl)c2)nc2c(C(F)(F)F)cc(Cl)cc12` (configuration not stated), the “log(1/C)” value is given as 4.82.

With `CCCCN(CCCC)CC(O)c1cc(-c2ccc(OC)cc2)nc2cc(Cl)c(Cl)cc12` (configuration not stated), the “log(1/C)” value is reported as 3.63. Consider `OC(CNC12CC3CC(CC(C3)C1)C2)c1cc(-c2ccc(Cl)cc2)nc(-c2ccc(Cl)cc2)c1` (configuration not stated), for which the “log(1/C)” value was determined as 3.23. `CN1CCN(CC(O)c2cc(-c3ccc(F)cc3)nc3cc(F)ccc23)CC1` (configuration not stated): the “log(1/C)” value is given as 2.27.

Consider `OC(CC1CCCCN1)c1cc2cccc(C(F)(F)F)c2c2cc(C(F)(F)F)ccc12` (configuration not stated), for which the “log(1/C)” value stood at 3.54. As to `OC(CC1CCCCN1)c1cc(-c2ccccc2)nc2c(Cl)cccc12` (configuration not stated), the “log(1/C)” value came to 2.69. On to `CCCCN(CCCC)CC(O)c1c(Br)c2ccccc2c2ccccc12` (configuration not stated), for which the “log(1/C)” value was 2.51. With `CCCCN(CCCC)CC(O)c1cc(C(C)(C)C)nc2c1ccc1ccccc12` (configuration not stated), the “log(1/C)” value is given as 2.65. In the case of `CCCC(CCC)NCC(O)c1cc2ccc(C(F)(F)F)cc2c2cc(C(F)(F)F)ccc12` (configuration not stated) it was 4.33.

Consider `OC(CC1CCCCN1)c1cc2cc(Cl)ccc2c2ccc(C(F)(F)F)cc12` (configuration not stated), for which the “log(1/C)” value was found to be 3.25.

As for `CCCCCCCN(CCCCCCC)CC(O)c1cc2ccccc2c2ccccc12` (configuration not stated), the “log(1/C)” value turned out to be 2.87.

For `OC(CNC12CC3CC(CC(C3)C1)C2)c1cc(-c2ccc(Cl)cc2)nc2c(Cl)cc(Cl)cc12` (configuration not stated), the “log(1/C)” value came out at 3.59.

With `CCN(CC)CC(O)c1cc(-c2ccc(Br)cc2)nc(-c2ccc(Br)cc2)c1` (configuration not stated), the “log(1/C)” value amounted to 3.13. Take `CCCCN(CCCC)CC(O)c1cc(-c2ccccc2)nc(-c2ccccc2)c1` (configuration not stated): the “log(1/C)” value was determined as 2.51. The result for `CCCCCN(CCCCC)CC(O)c1cc2ccc(C(F)(F)F)cc2c2ccsc12` (configuration not stated) reads 2.69; that for `CCCCCCCCN(CCCCCCCC)CC(O)c1cc(-c2ccc(CC)c(CC)c2)cc2ccc(C)cc12` (configuration not stated), 3.15. Consider `CCCCN(CCCC)CC(O)c1cc(C(=O)c2cccc(Cl)c2Cl)nc2c(C(F)(F)F)cc(Cl)cc12` (configuration not stated), for which the “log(1/C)” value amounted to 4.52.

Regarding `CCCCN1CCCCC1CC(O)c1cc2ccccc2c2cc(Br)ccc12` (configuration not stated), the “log(1/C)” value came to 3.22. The result for `CCCCN(CCCC)CC(O)c1cc2cc(Br)ccc2c2cc(C(F)(F)F)ccc12` (configuration not stated) reads 4.07; that for `CCCCN(CCCC)CC(O)c1c(C)c(-c2ccc(C)cc2C)nc2c1cc(Cl)c1ccccc12` (configuration not stated), 3.05.

For `CCCNCCC(O)c1cc(C(F)(F)F)nc2c(C(F)(F)F)cccc12` (configuration not stated), the “log(1/C)” value is recorded as 2.82.

For the compound `OC(CC1CCCCN1)c1cc2ccc(Br)cc2c2cc(C(F)(F)F)ccc12` (configuration not stated), the “log(1/C)” value came to 3.7.

With `CCCCNCCC(O)c1c2ccccc2c(Cl)c2cc(C(F)(F)F)ccc12` (configuration not stated), the “log(1/C)” value was determined as 3. `CCCCN(CCCC)CC(O)c1cc(Oc2ccc(Cl)cc2)cc2c(Cl)cc(Cl)cc12` (configuration not stated): the “log(1/C)” value is reported as 2.57.

`OC(CC1CCCCN1)c1cc2cccc(C(F)(F)F)c2c2ccccc12` (configuration not stated): the “log(1/C)” value was determined as 3.62. For `CCCCN(CCCC)CC(O)c1cc2sccc2c2cc(Cl)sc12` (configuration not stated), the “log(1/C)” value is 3.36. With `CC(C)(C)NCCC(O)c1cc(C(F)(F)F)nc2c(C(F)(F)F)cccc12` (configuration not stated), the “log(1/C)” value amounted to 3.47. Turning to `OC(Cc1ccc2ccccc2n1)c1cc2ccc(C(F)(F)F)cc2c2cc(C(F)(F)F)ccc12` (configuration not stated), the “log(1/C)” value was 4.11. On to `CCCCN(CCCC)CC(O)c1cc(-c2ccc(Cl)cc2)nc(-c2ccc(OC)cc2)c1` (configuration not stated), for which the “log(1/C)” value is 2.84. In the case of `CCCCN(CCCC)CC(O)c1cc2cc(Cl)cc(Cl)c2c2cc(Cl)ccc12` (configuration not stated), the “log(1/C)” value came out at 4.21. As to `CCC(C)NCC(O)c1cc(-c2ccc(Cl)cc2)nc(-c2ccc(Cl)cc2)c1` (configuration not stated), the “log(1/C)” value worked out at 4.09. Take `CCCCNCC(O)c1cc2ccc(C(F)(F)F)cc2c2cc(C(F)(F)F)ccc12` (configuration not stated): the “log(1/C)” value came out at 4.11.

As to `CC(C)CN(C)CC(O)c1cc(-c2ccc(Cl)cc2)nc(-c2ccc(Cl)cc2)c1` (configuration not stated), the “log(1/C)” value amounted to 3.29. In the case of `CCCCN(CCCC)CC(O)c1cc(-c2ccc(Cl)cc2)nc2c(OC)ccc(OC)c12` (configuration not stated) it was 2.52. In the case of `CCCCN(CCCC)CC(O)c1c(OC)c2cc(Cl)ccc2c2ccc(Cl)cc12` (configuration not stated) it was 3.71; in that of `CCCCN(CCCC)CC(O)c1cc(/C=C/c2ccc(Cl)cc2)nc(C23CC4CC(CC(C4)C2)C3)c1` (configuration not stated), 2.72. In the case of `CCCCNCCC(O)c1cc2c(Cl)cc(Cl)cc2c2cc(C(F)(F)F)ccc12` (configuration not stated) it was 4.62; in that of `CCCCCCCN(CCCCCCC)CC(O)c1ccc(Cl)c2cc3cccc(Cl)c3cc12` (configuration not stated), 3.56. With `CCCCCCCN(CCCCCCC)CC(O)c1cc2ccccc2c2ccc(Cl)cc12` (configuration not stated), the “log(1/C)” value was found to be 2.97. `CCCCN(CCCC)CC(O)c1cc2c(Cl)c(Cl)ccc2c2cc(C(F)(F)F)ccc12` (configuration not stated): the “log(1/C)” value came out at 3.55. Regarding `Cc1ccc(-c2cc(C(O)CN3CCCCC3)c3cc(C)ccc3n2)cc1` (configuration not stated), the “log(1/C)” value came out at 2.42.

In the case of `Cc1ccc2c(C(O)CC3CCCCN3)cc3ccccc3c2c1` (configuration not stated), the “log(1/C)” value came out at 2.83. As for `CCCCN(CCCC)CC(O)c1cc2ccsc2c2cc(Br)ccc12` (configuration not stated), the “log(1/C)” value turned out to be 3.37. In the case of `CCCCCCN(CCCCCC)CC(O)c1cc(-c2ccccc2)nc2c(Cl)cc(Cl)cc12` (configuration not stated) it was 3.35. In the case of `OC(CNC1CCCC1)c1cc(-c2ccc(Cl)cc2)nc2c(Cl)cc(Cl)cc12` (configuration not stated) it was 3.53; in that of `OC(CC1CCCCN1)c1cc2c(Cl)cc(Cl)cc2c2cc(Cl)ccc12` (configuration not stated), 4.12.

Turning to `Cc1cc(C)cc(-c2cc(C(O)CC3CCCCN3)c3ccccc3n2)c1` (configuration not stated), the “log(1/C)” value was 2.24. Take `Cc1cc(C)c2nc(Nc3ccc(Cl)cc3)cc(C(O)CC3CCCCN3)c2c1` (configuration not stated): the “log(1/C)” value was determined as 2.74. `CCCCCCCN(CCCCCCC)CC(O)c1ccc2ccc3cccc(C(F)(F)F)c3c2c1` (configuration not stated): the “log(1/C)” value is on record as 2.58. For `CCCCN(CCCC)CC(O)c1cc(-c2ccc(Cl)cc2)cc2ccccc12` (configuration not stated), the “log(1/C)” value amounted to 3.87.

In the case of `CCCCCCCN(CCCCCCC)CC(O)c1c2cccc(Cl)c2cc2c(Cl)cccc12` (configuration not stated), the “log(1/C)” value is 3.92.
